What all share (assay): Further analysis of a plurality of inhibitors and a plurality of kinases (Table 5 inhibition results)
Holding throughout (type): biochemical
Parameters in all cases: scale not given here

In assay [1] the target is kinases of Table 5 (Homo sapiens, UniProt Q8IVW4). The note with it: kinase CDKL3 (Part II, plate F12, Domain 0); inhibitor 100 uM. The text has this:
(§1) The wash solution is then discarded.

The target in assay [2] is kinases of Table 5 (Homo sapiens, UniProt Q7KZI7). Conditions: kinase MARK2 (Part I, plate C4, Domain 1); inhibitor 100 uM.
Sequence of kinases of Table 5 (Homo sapiens, UniProt Q7KZI7) (Q7KZI7 whole entry): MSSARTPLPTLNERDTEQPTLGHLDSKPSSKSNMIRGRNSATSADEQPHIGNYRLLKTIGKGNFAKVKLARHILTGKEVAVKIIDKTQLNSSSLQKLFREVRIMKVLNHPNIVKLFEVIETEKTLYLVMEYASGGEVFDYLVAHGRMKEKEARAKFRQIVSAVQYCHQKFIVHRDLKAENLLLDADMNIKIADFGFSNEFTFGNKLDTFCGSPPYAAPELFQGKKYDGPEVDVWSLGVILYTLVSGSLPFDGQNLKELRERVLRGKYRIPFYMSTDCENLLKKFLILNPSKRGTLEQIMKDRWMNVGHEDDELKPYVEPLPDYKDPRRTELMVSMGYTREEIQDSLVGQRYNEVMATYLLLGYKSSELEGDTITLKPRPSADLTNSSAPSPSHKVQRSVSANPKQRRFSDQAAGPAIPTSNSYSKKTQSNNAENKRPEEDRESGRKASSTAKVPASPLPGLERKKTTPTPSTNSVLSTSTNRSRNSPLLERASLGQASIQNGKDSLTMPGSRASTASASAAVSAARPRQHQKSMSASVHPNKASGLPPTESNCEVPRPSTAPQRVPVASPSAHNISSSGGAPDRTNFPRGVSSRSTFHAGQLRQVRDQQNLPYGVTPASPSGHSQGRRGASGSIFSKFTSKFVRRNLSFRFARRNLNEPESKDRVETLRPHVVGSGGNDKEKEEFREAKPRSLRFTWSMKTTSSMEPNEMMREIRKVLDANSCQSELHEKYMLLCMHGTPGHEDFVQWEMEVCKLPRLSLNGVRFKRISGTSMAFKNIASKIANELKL
Excerpt: as §1

In assay [3] the target is kinases of Table 5 (Homo sapiens, UniProt P37173). Conditions: kinase TGFBR2 (Part I, plate C7, Domain 1); inhibitor 100 uM.
Sequence of kinases of Table 5 (Homo sapiens, UniProt P37173) (P37173 23-567): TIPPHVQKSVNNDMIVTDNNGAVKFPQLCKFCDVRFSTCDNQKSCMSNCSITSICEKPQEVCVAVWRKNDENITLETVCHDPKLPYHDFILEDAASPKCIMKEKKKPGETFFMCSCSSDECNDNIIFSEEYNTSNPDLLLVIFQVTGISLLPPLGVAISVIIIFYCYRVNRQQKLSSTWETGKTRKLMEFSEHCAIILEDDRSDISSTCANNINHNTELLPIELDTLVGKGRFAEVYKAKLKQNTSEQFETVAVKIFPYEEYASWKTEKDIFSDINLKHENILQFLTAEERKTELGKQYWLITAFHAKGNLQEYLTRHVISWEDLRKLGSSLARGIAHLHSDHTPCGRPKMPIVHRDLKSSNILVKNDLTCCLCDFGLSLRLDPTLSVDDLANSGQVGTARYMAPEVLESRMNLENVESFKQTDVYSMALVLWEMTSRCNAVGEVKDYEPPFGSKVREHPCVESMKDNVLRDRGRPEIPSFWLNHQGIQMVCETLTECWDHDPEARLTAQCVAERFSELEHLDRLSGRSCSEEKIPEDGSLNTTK
Excerpt: as §1

For assay [4], the target named is kinases of Table 5 (Homo sapiens, UniProt P07948). The note with it: kinase LYN (Part I, plate A5, Domain 0); inhibitor 100 uM.
Sequence of kinases of Table 5 (Homo sapiens, UniProt P07948) (P07948 whole entry): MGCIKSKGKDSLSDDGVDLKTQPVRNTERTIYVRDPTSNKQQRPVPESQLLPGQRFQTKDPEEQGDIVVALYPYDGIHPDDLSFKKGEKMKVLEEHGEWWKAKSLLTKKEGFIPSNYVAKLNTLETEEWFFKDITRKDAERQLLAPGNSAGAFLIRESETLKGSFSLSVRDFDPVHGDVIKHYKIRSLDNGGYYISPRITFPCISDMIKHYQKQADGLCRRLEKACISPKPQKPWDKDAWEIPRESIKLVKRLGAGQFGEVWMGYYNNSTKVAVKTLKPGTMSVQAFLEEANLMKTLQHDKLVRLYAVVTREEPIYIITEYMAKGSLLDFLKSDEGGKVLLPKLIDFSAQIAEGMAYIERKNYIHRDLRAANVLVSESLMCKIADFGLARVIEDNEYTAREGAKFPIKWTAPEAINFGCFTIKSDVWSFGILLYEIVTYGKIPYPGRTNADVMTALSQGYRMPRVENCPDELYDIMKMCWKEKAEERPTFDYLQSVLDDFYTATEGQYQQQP
Excerpt: as §1

In assay [5] the target is T1, kinases of Table 5 (Homo sapiens, UniProt Q96KB5).
T1 sequence (Q96KB5 1-322): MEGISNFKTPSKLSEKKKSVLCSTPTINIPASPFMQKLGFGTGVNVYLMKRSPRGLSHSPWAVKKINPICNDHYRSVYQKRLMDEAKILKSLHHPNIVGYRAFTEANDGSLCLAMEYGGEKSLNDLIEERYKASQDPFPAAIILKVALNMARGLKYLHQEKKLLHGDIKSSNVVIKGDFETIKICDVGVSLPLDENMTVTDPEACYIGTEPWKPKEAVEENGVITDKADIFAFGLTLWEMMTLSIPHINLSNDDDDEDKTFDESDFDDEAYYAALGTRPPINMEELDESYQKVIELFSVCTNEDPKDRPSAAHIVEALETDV
The note with it: kinase TOPK (Part I, plate G7, Domain 1); inhibitor 100 uM.
Excerpt: as §1

Assay [6] concerns the target T2, kinases of Table 5 (Homo sapiens, UniProt O43318).
T2 sequence (O43318 1-606): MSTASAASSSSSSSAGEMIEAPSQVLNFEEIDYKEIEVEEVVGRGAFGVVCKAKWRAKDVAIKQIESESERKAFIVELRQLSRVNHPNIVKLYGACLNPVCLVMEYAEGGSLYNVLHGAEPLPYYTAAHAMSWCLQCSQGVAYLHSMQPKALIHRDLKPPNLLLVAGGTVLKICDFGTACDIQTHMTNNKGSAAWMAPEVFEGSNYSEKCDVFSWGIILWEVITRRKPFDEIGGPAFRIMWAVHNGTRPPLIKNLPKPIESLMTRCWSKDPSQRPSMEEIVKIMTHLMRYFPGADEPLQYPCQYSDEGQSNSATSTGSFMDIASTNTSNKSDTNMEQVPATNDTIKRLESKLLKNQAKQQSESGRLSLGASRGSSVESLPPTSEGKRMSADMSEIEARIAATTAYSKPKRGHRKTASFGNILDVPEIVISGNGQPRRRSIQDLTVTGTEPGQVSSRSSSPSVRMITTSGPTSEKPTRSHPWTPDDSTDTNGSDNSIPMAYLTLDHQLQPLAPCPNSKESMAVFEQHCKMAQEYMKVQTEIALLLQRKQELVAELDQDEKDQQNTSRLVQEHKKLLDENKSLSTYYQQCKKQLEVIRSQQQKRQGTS
The note with it: kinase MAP3K7 (Part I, plate G9, Domain 0); inhibitor 100 uM.
Excerpt: as §1

The target in assay [7] is kinases of Table 5 (Homo sapiens, UniProt P06239). The note with it: kinase LCK (Part I, plate A6, Domain 0); inhibitor 100 uM.
Sequence of kinases of Table 5 (Homo sapiens, UniProt P06239) (P06239 whole entry): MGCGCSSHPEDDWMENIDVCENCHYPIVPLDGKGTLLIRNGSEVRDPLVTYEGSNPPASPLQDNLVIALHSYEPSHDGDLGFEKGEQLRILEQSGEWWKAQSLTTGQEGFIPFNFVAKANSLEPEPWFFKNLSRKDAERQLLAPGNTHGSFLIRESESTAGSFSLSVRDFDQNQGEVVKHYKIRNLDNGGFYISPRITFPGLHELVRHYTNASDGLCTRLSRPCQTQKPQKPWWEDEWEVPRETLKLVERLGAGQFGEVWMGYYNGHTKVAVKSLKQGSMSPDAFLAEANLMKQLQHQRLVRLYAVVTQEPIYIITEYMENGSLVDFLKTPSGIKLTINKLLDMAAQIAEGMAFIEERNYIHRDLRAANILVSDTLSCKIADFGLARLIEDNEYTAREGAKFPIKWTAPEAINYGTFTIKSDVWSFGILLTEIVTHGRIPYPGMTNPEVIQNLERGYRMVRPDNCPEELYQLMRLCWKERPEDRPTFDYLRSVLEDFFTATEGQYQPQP
Excerpt: as §1

The target in assay [8] is T3, kinases of Table 5 (Homo sapiens, UniProt Q8IV63).
T3 sequence (Q8IV63 1-474): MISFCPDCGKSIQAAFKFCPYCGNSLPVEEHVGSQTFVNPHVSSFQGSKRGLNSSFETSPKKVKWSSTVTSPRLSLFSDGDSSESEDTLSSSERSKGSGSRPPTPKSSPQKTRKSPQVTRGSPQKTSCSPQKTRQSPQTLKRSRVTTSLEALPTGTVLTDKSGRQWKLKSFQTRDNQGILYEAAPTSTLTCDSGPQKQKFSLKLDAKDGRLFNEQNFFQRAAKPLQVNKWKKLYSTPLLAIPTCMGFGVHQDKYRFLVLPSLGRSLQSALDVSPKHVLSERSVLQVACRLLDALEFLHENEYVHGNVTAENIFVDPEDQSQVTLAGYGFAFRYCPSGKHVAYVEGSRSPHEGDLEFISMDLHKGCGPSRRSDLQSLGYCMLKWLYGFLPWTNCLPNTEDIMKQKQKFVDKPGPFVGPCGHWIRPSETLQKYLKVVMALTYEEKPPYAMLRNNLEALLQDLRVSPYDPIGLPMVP
Conditions: kinase LOC51231 (Part I, plate C12, Domain 1); inhibitor 100 uM.
Excerpt: as §1

For assay [9], the target named is T4, kinases of Table 5 (Homo sapiens, UniProt P51813).
T4 sequence (P51813 1-675): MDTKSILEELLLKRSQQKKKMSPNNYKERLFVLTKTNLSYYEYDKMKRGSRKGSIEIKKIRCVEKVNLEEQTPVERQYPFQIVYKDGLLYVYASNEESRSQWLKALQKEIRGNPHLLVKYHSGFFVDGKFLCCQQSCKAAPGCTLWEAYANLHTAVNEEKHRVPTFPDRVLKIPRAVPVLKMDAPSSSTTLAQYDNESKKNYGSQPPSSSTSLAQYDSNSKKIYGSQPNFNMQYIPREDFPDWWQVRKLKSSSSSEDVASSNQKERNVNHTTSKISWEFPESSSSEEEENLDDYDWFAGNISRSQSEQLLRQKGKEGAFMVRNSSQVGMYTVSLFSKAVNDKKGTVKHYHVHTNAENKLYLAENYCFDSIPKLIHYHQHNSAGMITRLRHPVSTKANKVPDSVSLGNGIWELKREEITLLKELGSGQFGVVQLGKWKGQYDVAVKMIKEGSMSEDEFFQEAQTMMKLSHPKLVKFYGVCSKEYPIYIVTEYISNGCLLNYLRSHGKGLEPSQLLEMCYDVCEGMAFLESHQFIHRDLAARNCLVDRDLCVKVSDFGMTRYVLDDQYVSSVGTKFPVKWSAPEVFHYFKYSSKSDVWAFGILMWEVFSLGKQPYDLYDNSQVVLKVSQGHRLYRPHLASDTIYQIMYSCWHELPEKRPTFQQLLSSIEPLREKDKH
Conditions: kinase BMX (Part II, plate B12, Domain 1); inhibitor 100 uM.
Excerpt: as §1

In assay [10] the target is kinases of Table 5 (Homo sapiens, UniProt Q00536). The note with it: kinase PCTK1 (Part I, plate A3, Domain 0); inhibitor 100 uM.
Sequence of kinases of Table 5 (Homo sapiens, UniProt Q00536) (Q00536 whole entry): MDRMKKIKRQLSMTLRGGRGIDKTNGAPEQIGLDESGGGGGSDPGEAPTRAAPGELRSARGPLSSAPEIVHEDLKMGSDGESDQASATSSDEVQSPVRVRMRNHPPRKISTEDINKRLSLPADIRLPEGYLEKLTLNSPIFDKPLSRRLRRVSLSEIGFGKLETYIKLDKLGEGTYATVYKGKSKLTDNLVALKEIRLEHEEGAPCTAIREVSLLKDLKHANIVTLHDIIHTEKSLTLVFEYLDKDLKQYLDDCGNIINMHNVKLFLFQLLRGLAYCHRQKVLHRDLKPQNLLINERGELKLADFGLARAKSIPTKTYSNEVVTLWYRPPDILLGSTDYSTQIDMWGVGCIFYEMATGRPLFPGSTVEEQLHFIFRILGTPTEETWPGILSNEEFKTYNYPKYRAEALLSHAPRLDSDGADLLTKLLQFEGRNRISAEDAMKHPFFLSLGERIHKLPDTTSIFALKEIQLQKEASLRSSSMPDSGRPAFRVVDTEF
Excerpt: as §1

Sequence of kinases of Table 5 (Homo sapiens, UniProt Q8IVW4) (Q8IVW4 whole entry): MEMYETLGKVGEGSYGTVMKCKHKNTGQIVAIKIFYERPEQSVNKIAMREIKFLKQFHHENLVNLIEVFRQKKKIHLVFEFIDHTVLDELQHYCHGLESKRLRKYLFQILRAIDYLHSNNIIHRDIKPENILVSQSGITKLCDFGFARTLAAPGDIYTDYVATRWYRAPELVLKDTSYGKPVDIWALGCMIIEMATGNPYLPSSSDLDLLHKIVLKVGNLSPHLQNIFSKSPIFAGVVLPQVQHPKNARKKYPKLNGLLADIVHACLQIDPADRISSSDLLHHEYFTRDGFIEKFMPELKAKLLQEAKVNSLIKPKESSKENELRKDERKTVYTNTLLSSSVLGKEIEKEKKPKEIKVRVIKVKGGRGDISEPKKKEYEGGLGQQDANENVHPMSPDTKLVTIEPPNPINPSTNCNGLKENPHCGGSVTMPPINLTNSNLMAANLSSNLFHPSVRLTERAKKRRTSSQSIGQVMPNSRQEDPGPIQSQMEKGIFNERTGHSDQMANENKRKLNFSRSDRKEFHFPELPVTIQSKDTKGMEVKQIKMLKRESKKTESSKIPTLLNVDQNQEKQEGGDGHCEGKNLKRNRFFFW

Consider `CC(=O)c1c(O)c(C)c(O)c(Cc2c(O)c3c(c(C(=O)/C=C/c4ccccc4)c2O)OC(C)(C)C=C3)c1O` [Rottlerin (Mallotoxin)], for which the “Inhibition Results (Level)” value is 1 on kinases of Table 5 [1]; 2 on kinases of Table 5 [2]; 2 at kinases of Table 5 [3]; 2 on kinases of Table 5 [4]; 2 at kinases of Table 5 [5]; 2 at kinases of Table 5 [6]. For the same compound, the “Inhibition Results (Level)” value on kinases of Table 5 [7] was 2; at kinases of Table 5 [8], 0; at kinases of Table 5 [9], 1; on kinases of Table 5 [10], 0.

For the origin of these results see US20090099029A1, “Methods and substrates for conducting assays” (Invitrogen Corporation, priority 2005, published 2009).
